Experimental data published in patent publication US4665056A, “Dihydroorotic acid derivative and processes for preparing the same” (Tanabe Seiyaku Co., Ltd., priority 1984, dated 1987).

Assays:
[1] = tested on: male STD/ddY mice; conditions: published data (Brain Research Reviews 4, 389 (1982)); cited from earlier work
[2] = tested on: male STD/ddY mice; experiment: Antagonistic effect on pentobarbital anesthesia, oral administration; assay type: in vivo; conditions: oral administration 15 min before pentobarbital sodium 55 mg/kg i.p.
Description: (§1) The pharmacological activities of test compounds estimated by oral administration.
A test compound dissolved in distilled water was orally administered to male STD/ddY mice. Fifteen minutes after the administration of the test compound, pentobarbital sodium was intraperitoneally administered to the mice at a dose of 55 mg/kg. The duration of anesthesia was measured as the time from the disappearance of righting reflex to the recovery thereof. Distilled water was administered to the control group of mice instead of the test compound solution.

[3] = tested on: male STD/ddY mice; experiment: Increasing effect on spontaneous locomotor activity, oral administration; assay type: in vivo; conditions: activity measured for 3 hours
Description: as §1
(§2) Male STD/ddY mice were individually placed in Ambulometer (i.e., an apparatus for measuring spontaneous locomotor activity; manufactured by OHARA IKA Co.) for 30 minutes to acclimatize to the apparatus. Thereafter, a test compound dissolved in distilled water was orally administered to the mice and, immediately after administration of the test compound, the spontaneous locomotor activity was measured for 3 hours. Distilled water was administered to the control group of mice instead of the test compound solution.

[4] = tested on: male STD/ddY mice; experiment: Potentiating effect on action of Dopamine (L-Dopa in reserpinized mice); assay type: in vivo; conditions: intraperitoneal administration, reserpine 3 mg/kg s.c. and L-Dopa 200 mg/kg i.p., TRH taken as 1
Description: (§3) The pharmacological activities of test compounds estimated by parenteral administration.
Reserpine was subcutaneously administered to male STD/ddY mice at a dose of 3 mg/kg, and about 16 to 20 hours later, L-Dopa was intraperitoneally administered to the mice at a dose of 200 mg/kg. Thirty minutes after administration of L-Dopa, a test compound dissolved in a physiological saline solution was administered intraperitoneally to the mice (when TRH was used as the test compound, it was administered 45 minutes after administration of L-Dopa). Spontaneous locomotor activity was measured by ANIMEX (i.e., an apparatus for mesuring spontaneous locomotor activity; manufactured by FERAD Co.) for 15 minutes starting from one hour after administration of L-Dopa. A physiological saline solution was administered to the control group of mice instead of the test compound solution.

[5] = tested on: male STD/ddY mice; experiment: Increasing effect on spontaneous locomotor activity, intraperitoneal administration; assay type: in vivo; conditions: measured for 60 minutes, TRH taken as 1
Description: as §2, §3
(§4) The experiments were carried out in the same manner as described in Experiment 1 except that a test compound dissolved in a physiological saline solution was administered intraperitoneally to mice and, in estimating the increasing effect on spontaneous locomotor activity, said spontaneous locomotor activity was measured for 60 minutes immediately after administration of the test compound.

[6] = tested on: male STD/ddY mice; experiment: Antagonistic effect on reserpine-induced hypothermia, oral administration; assay type: in vivo; conditions: TRH tartrate taken as 1, parallel line assay method
Description: as §1
(§5) A test compound dissolved in distilled water was orally administered to the mice, and the rectal temperature was measured 30, 60, 120, 180 and 300 minutes after the administration of the test compound. The increase in the body temperature of the medicated group of mice was compared with that of the control group of mice which received distilled water instead of the test compound solution.

[7] = tested on: male STD/ddY mice; experiment: Antagonistic effect on reserpine-induced hypothermia, intraperitoneal administration; assay type: in vivo; conditions: TRH taken as 1, parallel line assay method
Description: as §5, §3, §4

[8] = tested on: male STD/ddY mice; experiment: Antagonistic effect on pentobarbital anesthesia, intravenous administration; assay type: in vivo; conditions: intravenous administration 10 min after pentobarbital sodium 55 mg/kg i.p., TRH taken as 1
Description: as §3
Pentobarbital sodium was intraperitoneally administered to male STD/ddY mice at a dose of 55 mg/kg. Ten minutes after the administration of pentobarbital sodium, a test compound dissolved in a physiological saline solution was intravenously administered to the mice which had lost the righting reflex. The duration of anesthesia was measured as the time from the end of administration of the test compound until the righting reflex regained. A physiological saline solution was administered to the control group of mice instead of the test compound solution.

[9] = tested on: male JCL:SD rats; conditions: TRH taken as 1; cited from earlier work
[10] = tested on: male JCL:SD rats; experiment: TSH-releasing activity (side effect), serum TSH by radioimmunoassay; assay type: in vivo; conditions: intravenous administration, serum TSH 15 min after, TRH taken as 1, parallel line assay method
Description: A test compound dissolved in a 0.1% BSA (bovine serum albumin)-containing physiological saline solution was intravenously administered to male JCL:SD rats. Fifteen minutes after the administration, blood was taken from the abdominal aorta under anesthesia. Serum TSH levels were determined by the double-antibody radioimmunoassay method (Midgley et al., Endocrinology., 79, 10 (1966)). The BSA-containing physiological saline solution was administered to the control group of rats instead of the test compound solution.

[11] = tested on: male STD/ddY mice; experiment: Acute toxicity (LD50), intravenous; assay type: in vivo; conditions: mortality 24 hours after administration
Description: A test compound was intravenously administered to male STD/ddY mice and the acute toxicity (LD50) thereof was determined from mortality of mice 24 hours after administration of the test compound.

| SMILES | Therapeutic activity by oral administration | LD50 (published data) [1] | Minimum effective dose, antagonistic effect on pentobarbital anesthesia [2] [mg/kg] | Minimum effective dose, increasing effect on spontaneous locomotor activity [3] [mg/kg] | Potency ratio to TRH, potentiating effect on action of Dopamine [4] | Potency ratio to TRH, increasing effect on spontaneous locomotor activity [5] | Potency ratio to TRH tartrate, antagonistic effect on reserpine-induced hypothermia [6] | Potency ratio to TRH, antagonistic effect on reserpine-induced hypothermia [7] | Potency ratio to TRH, antagonistic effect on pentobarbital anesthesia [8] | Potency ratio to TRH, TSH-releasing activity (published data) [9] | Potency ratio to TRH, TSH-releasing activity [10] | LD50 [11] |
| --- | --- | --- | --- | --- | --- | --- | --- | --- | --- | --- | --- | --- |
| NC(=O)[C@@H]1CCCN1C(=O)[C@H](Cc1cnc[nH]1)NC(=O)[C@@H]1CCC(=O)N1 [TRH, L-pyroglutamyl-L-histidyl-L-prolinamide] | no substantial therapeutic effects | 1450 mg/kg, i.v. | – | – | – | – | – | – | – | – | – | – |
| NC(=O)[C@@H]1CCCN1C(=O)[C@H](Cc1cnc[nH]1)NC(=O)[C@@H]1CCC(=O)N1.O=C(O)C(O)C(O)C(=O)O [TRH tartrate] | – | – | > 100 | > 100 | – | – | – | – | – | – | – | – |
| NC(=O)[C@@H]1CCCN1C(=O)[C@H](Cc1c[nH]cn1)NC(=O)c1cc(=O)[nH]c(=O)[nH]1 [No. 2, Orotyl-L-histidyl-L-prolinamide] | – | 1200 mg/kg, i.v. | – | – | 2.6 | 3.8 | 13.0 | 7.4 | 1.9 | – | – | – |
| NC(=O)[C@@H]1CCCN1C(=O)[C@H](Cc1c[nH]cn1)NC(=O)[C@@H]1CCC(=O)O1 [No. 1, (2,3,4,5-tetrahydro-2-oxo-L-5-furancarbonyl)-L-histidyl-L-prolinamide] | – | – | – | – | 2.5 | 3.5 | 3.4 | 5.7 | 1.3 | 1/40 | – | – |
| CN1C(=O)C[C@@H](C(=O)N[C@@H](Cc2c[nH]cn2)C(=O)N2CCC[C@H]2C(N)=O)NC1=O [The compound of the present invention, (1-methyl-L-4,5-dihydroorotyl)-L-histidyl-L-prolinamide] | excellent therapeutic activity even by oral administration | – | 1 | 10 | 18.5 | 27.4 | 91.3 | 31.4 | 2.7 | – | 1/30 | 1589 mg/kg, i.v. |
